Test results: patent publication US6642003B2, “Human glucose-dependent insulin-secreting cell line” (Cedars-Sinai Medical Center, priority 2001, dated 2003)

What was measured:
[1] = test system: PANC-1 cells; experiment: RT-PCR of islet β-cell specific transcripts, parental PANC-1 cells; type: cell-based, human; settings: GLP-1 10 nM for 96 h
Description: After the treatment of ARIP and PANC-1 cells with GLP-1, Exendin-9, or vehicle, for the described length of time and the various doses, the culture medium was removed and the cells were washed (twice) with serum-free medium. Total RNA was isolated using the TRiazol-method (Gibco-BRL), and treated with DNase (Amplification Grade, GibcoBRL) in 20 mmol/l Tris-HCL (pH 8.4), 2 mmol/l MgCl2, and 50 mmol/l KCl to remove any traces of contaminating genomic DNA. RNA (2.5 μg) was then subjected to reverse transcription (RT reagents; Promega; Madison, Wis.). RT-PCR was undertaken in a volume of 50 μl of buffer containing 50 mmol/l KCl, 10 mmol/l Tris-HCl, 3.5 mmol/l MgCl2, 200 μmol/l each dNTPs, and 0.4 μmol/l each of sense and antisense primers to rat or human insulin (depending on the specific cell from which the RNA was extracted). Amplification was performed for 30 cycles at the denaturing temperature of 94° C. for 1 min, annealing temperature of 60° C. for 45 sec, and an extension temperature of 72° C. for 1 min. […] These included more irregular and variable cell shapes, with a cytoplasm less homogenous and “rougher” in appearance than control culture.
Treatment with GLP-1 induces the differentiation of ductal epithelial cells into insulin-producing cells. FIG. 2 illustrates a series of cell cultures grown with or without GLP-1 (10 nM) for 72 h. […]

[2] = test system: PANC-1 cells; experiment: Immunofluorescence for IDX-1, parental PANC-1 cells; type: cell-based, human; settings: vehicle alone or GLP-1
Description: Cells were cultured on monocoated chamber slides (Nalge Nunc International; Naperville, Ill.) in the presence of GLP-1 (10 nM), or vehicle, for 72 h.
For the detection of IDX-1, slightly different conditions were used. Briefly: the concentration of paraformaldehyde was decreased to 2%, and the concentration of Triton to permeabilize the cells was raised to 0.2% Triton-X-100. Cells were then washed with 0.01 M PBS three times for 3-5 min, and non-specific binding was inhibited by using 5% chick serum in 0.01 M PBS, at room temperature for 60 min in a humid chamber. A rabbit IDX-1 antibody directed against the N-terminus of the frog homologue of the IDX-1 gene was used as the primary antibody (1:500 diluted with 0.1% Triton-X 100, 1% BSA in 0.01 M PBS), and slides were incubated at 4° C. overnight in a humid chamber. After washing, cells were incubated with a fluorescein-conjugated goat anti-rabbit IgG antibody (Molecular Probes, Inc. Eugene, Oreg.) and incubated at room temperature for 1 hour in a humid chamber. Nuclei of cells stained with anti-IDX-1 antibody were visualized with Hoechst […] dye (Sigma, St. Louis, Mo.). The percentage of IDX-1 containing cells was evaluated by counting the number of IDX-1 “positive” cells divided by the total number of cells identified by nuclear staining.

[3] = test system: PANC-1 cells; experiment: Morphological changes (hematoxylin and eosin), parental PANC-1 cells; type: cell-based, human; settings: GLP-1 10 nM for 72 h
Excerpt: Hematoxylin and eosin staining was employed, in some experiments, to show the morphological changes observed under the experimental conditions described below.

[4] = test system: ARIP and PANC-1 cells; experiment: GLP-1 receptor (GLP-R) mRNA by cycle-titration RT-PCR; type: cell-based; settings: GLP-1 10 nM for 72 h, transfected and non-transfected cells
Description: FIGS. 9A-C show GLP-1 receptor expression in ARIP and PANC-1 cells. ARIP and PANC-1 cells (transfected with human IDX-1, or solely with the neomycin resistant gene) were cultured in serum-free medium and treated with GLP-1 (10 nM), or vehicle alone, for 72 h. RT-PCR for GLP-R and β-actin was performed with a cycle-titration PCR (15, 20, 25, 30 PCR cycles) to assess the relative abundance of GLP-R transcript. Primers for both transcripts were added together in a single PCR-reaction for each individual sample. […] Each experiment was repeated four times, using RNA samples from independent cultures. The blots on the left represent one individual experiment, while the graphs on the right are the average of four independent experiments. The numeric values in the graphs represent the ratio of GLP-R mRNA to actin mRNA.
Treatment with GLP-1 induces the differentiation of ductal epithelial cells into insulin-producing cells. FIG. 2 illustrates a series of cell cultures grown with or without GLP-1 (10 nM) for 72 h. […] Preabsorption of the antibody with an excess of human recombinant insulin prevented the staining of insulin-positive GLP-1 treated cells (data not shown). While treatment with GLP-1 turned the majority of ARIP cells into glucokinase mRNAs, the same PCR conditions as described above were used in the presence of gene-specific primers. […]

[5] = test system: glucose-intolerant aging Wistar rats; settings: cited from earlier work

With glucagon-like peptide-1 [GLP-1] the RT-PCR for insulin [1] was “consistently negative”, the IDX-1 staining [2] was “No positive IDX-1 staining” and the morphological change [3] was “did not respond”. The “effect on GLP-R mRNA levels” value [4] was “further modest increase (no-statistically significant)”, the “effect on glucose tolerance” value [5] was “restored normal glucose tolerance” and the “effect on islet cell proliferation” value [5] was “induced islet cell proliferation”.
